Assay results: ChEMBL document CHEMBL4304811, “Development of a Water-Soluble Indolylmaleimide Derivative IM-93 Showing Dual Inhibition of Ferroptosis and NETosis” (ACS Med Chem Lett, 2019)
Calls of active or inactive are those of the source. The calls are words filed in the database; no cut-off is given here.

Experiments:
[1] = test system: Tyrosine-protein kinase ABL1 (Homo sapiens), P00519 [Y253F]; assay: Binding affinity to human phosphorylated ABL1 Y253F mutant (S229 to K512 residues) expressed in mammalian expression system assessed as residual binding level at 10 uM by Kinomescan method relative to control
[2] = biological target: Serine/threonine-protein kinase DCLK1 (Homo sapiens) (UniProt O15075); assay: Binding affinity to wild-type human partial length DCAMKL1 (L270 to A662 residues) expressed in mammalian expression system assessed as residual binding level at 10 uM by Kinomescan method relative to control
Serine/threonine-protein kinase DCLK1 (Homo sapiens), sequence (O15075 whole entry, the tested form may be a part): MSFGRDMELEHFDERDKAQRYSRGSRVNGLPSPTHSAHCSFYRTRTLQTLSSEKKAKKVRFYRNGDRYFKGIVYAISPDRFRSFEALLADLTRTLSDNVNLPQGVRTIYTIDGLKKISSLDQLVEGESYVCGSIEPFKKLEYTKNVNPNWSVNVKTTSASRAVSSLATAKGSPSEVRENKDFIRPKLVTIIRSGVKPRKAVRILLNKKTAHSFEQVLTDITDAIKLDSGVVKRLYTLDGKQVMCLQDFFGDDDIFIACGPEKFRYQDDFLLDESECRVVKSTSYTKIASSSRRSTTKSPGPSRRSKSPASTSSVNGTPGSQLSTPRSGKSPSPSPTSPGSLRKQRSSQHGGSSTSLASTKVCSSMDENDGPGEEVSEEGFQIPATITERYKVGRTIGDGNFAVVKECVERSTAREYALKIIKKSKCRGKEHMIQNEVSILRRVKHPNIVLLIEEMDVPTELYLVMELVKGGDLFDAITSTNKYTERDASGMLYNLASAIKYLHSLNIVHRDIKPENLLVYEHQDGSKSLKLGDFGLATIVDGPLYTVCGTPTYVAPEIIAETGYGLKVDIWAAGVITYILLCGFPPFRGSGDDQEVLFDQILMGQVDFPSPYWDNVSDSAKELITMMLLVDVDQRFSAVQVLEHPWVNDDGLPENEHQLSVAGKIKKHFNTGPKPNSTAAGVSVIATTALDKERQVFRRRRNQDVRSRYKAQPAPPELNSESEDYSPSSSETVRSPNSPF

[3] = test system: Epidermal growth factor receptor (Homo sapiens), P00533 [L858R,T790M]; assay: Binding affinity to human partial length EGFR L858R/T790M double mutant (R669 to V1011 residues) expressed in mammalian expression system assessed as residual binding level at 10 uM by Kinomescan method relative to control
[4] = biological target: Ephrin type-B receptor 6 (Homo sapiens) (UniProt O15197); assay: Binding affinity to wild-type human partial length EPHB6 (Q634 to P948 residues) expressed in mammalian expression system assessed as residual binding level at 10 uM by Kinomescan method relative to control
Ephrin type-B receptor 6 (Homo sapiens), sequence (O15197 whole entry, the tested form may be a part): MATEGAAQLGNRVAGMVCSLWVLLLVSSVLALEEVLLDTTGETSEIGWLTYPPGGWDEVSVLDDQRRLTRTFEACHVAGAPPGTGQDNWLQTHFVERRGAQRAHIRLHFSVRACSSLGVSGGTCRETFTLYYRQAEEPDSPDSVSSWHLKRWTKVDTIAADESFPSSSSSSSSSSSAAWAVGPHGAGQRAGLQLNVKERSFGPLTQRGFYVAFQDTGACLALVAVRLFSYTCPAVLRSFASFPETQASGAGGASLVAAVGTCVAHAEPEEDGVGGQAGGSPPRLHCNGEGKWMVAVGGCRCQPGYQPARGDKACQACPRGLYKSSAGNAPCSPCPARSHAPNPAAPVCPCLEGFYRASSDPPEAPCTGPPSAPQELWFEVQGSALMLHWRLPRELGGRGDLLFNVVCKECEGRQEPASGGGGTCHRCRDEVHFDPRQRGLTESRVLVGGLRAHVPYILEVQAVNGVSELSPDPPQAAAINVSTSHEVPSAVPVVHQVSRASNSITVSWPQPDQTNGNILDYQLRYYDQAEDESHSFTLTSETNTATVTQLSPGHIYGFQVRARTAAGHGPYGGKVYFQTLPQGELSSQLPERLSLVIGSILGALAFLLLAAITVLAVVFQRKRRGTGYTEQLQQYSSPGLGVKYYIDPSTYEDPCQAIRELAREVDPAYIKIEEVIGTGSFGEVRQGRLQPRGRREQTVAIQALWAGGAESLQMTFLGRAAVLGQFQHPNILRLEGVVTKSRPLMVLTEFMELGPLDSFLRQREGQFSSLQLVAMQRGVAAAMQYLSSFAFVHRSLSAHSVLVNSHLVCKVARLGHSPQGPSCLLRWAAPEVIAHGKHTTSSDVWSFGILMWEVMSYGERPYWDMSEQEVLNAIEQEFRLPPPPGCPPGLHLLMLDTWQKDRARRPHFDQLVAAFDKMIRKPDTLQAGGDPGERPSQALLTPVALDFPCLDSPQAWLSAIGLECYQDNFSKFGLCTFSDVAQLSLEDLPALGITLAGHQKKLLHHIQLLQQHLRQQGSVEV

[5] = biological target: Mitogen-activated protein kinase kinase kinase kinase 5 (Homo sapiens) (UniProt Q9Y4K4); assay: Binding affinity to wild-type human partial length MAP4K5 (M1 to P297 residues) expressed in bacterial expression system assessed as residual binding level at 10 uM by Kinomescan method relative to control
Mitogen-activated protein kinase kinase kinase kinase 5 (Homo sapiens), sequence (Q9Y4K4 whole entry, looked up, the tested form may be a part): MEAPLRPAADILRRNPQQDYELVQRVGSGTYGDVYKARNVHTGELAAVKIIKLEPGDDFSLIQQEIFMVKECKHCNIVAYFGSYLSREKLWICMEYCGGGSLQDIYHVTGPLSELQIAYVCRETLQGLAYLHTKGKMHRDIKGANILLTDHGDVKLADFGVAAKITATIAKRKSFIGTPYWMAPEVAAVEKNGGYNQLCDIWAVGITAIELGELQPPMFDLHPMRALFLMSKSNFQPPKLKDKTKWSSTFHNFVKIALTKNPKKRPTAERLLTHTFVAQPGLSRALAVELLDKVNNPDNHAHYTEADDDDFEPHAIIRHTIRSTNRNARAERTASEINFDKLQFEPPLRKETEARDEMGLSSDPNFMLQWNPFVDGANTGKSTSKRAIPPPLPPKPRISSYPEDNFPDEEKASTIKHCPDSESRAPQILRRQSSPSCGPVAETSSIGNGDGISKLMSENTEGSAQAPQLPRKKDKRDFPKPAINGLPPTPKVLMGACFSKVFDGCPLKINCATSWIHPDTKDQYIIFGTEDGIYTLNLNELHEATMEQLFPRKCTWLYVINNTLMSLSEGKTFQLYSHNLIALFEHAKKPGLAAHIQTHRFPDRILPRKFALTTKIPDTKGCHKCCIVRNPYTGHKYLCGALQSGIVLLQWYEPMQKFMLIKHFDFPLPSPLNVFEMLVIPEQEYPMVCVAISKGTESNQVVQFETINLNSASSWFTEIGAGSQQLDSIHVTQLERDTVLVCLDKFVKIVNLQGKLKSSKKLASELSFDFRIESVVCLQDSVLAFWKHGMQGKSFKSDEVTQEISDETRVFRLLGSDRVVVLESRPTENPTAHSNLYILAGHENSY

[6] = biological target: Myosin-IIIa (Homo sapiens) (UniProt Q8NEV4); assay: Binding affinity to wild-type human partial length MYO3A (M1 to K338 residues) expressed in bacterial expression system assessed as residual binding level at 10 uM by Kinomescan method relative to control
Myosin-IIIa (Homo sapiens), sequence (Q8NEV4 whole entry, the tested form may be a part): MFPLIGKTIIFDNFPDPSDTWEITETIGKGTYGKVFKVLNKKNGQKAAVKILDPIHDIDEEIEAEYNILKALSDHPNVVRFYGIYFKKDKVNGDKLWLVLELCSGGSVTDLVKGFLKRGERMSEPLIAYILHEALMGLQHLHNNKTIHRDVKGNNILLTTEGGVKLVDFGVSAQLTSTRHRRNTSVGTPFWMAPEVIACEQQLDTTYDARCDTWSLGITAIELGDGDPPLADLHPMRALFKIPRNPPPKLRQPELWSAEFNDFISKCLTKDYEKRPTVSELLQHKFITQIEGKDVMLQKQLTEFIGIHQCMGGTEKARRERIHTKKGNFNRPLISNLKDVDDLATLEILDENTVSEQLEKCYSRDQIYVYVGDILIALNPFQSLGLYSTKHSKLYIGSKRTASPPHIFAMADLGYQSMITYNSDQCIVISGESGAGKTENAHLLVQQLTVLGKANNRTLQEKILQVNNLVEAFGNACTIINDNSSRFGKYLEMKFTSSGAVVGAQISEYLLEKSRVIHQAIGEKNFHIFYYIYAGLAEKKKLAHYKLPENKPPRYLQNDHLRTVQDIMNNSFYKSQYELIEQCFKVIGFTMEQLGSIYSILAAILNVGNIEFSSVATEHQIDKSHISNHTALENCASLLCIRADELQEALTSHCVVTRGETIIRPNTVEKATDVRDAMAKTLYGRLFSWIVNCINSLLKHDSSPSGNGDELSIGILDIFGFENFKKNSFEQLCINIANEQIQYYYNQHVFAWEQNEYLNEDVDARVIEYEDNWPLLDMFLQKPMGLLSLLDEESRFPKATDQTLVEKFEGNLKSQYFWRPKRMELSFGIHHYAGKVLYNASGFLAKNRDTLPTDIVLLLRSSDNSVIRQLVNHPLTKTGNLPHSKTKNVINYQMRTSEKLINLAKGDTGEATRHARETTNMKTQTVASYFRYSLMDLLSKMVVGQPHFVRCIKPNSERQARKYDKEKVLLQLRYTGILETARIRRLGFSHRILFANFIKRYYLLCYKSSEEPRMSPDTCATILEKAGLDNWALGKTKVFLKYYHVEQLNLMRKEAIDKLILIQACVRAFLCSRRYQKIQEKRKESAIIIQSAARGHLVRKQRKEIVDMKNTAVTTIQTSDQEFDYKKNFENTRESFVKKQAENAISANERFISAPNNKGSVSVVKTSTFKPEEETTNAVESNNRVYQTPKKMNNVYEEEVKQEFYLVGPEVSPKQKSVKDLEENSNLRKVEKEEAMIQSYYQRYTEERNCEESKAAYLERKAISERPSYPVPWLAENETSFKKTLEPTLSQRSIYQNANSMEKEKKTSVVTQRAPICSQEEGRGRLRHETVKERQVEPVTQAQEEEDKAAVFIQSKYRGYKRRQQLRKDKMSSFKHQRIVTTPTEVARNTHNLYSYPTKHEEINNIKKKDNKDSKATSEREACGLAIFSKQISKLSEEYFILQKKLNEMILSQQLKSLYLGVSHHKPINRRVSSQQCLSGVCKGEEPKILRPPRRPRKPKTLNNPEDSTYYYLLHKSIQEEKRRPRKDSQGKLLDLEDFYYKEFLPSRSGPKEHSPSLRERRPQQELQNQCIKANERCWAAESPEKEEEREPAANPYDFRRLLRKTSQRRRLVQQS

[7] = biological target: Membrane-associated tyrosine- and threonine-specific cdc2-inhibitory kinase (Homo sapiens) (UniProt Q99640); assay: Binding affinity to wild-type human partial length PKMYT1 (A88 to G366 residues) expressed in bacterial expression system assessed as residual binding level at 10 uM by Kinomescan method relative to control
Membrane-associated tyrosine- and threonine-specific cdc2-inhibitory kinase (Homo sapiens), sequence (Q99640 whole entry, the tested form may be a part): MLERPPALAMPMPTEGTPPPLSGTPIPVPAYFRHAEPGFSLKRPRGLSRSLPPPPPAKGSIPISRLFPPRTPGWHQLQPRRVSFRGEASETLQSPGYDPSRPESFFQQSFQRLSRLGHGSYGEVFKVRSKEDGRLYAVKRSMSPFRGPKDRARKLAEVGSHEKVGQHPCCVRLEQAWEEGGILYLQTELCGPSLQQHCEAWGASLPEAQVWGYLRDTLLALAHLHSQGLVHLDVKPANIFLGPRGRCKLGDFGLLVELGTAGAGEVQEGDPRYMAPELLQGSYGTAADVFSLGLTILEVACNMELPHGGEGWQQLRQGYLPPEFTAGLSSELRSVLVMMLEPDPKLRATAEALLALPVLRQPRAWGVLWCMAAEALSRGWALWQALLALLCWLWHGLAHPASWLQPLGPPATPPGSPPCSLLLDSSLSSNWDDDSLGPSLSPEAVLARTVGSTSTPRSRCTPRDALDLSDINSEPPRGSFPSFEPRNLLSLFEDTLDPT

[8] = biological target: Serine/threonine-protein kinase PLK2 (Homo sapiens) (UniProt Q9NYY3); assay: Binding affinity to wild-type human partial length PLK2 (H58 to F354 residues) expressed in mammalian expression system assessed as residual binding level at 10 uM by Kinomescan method relative to control
[9] = test system: Neutrophil; assay: Inhibition of PMA-induced NETosis in human neutrophils assessed as reduction in lipid peroxidation at 20 uM preincubated for 30 mins followed by PMA stimulation measured after 30 mins by C11-Bodipy fluorescent dye based flow cytometry

## CC(C)N1C(=O)C(NCCCN(C)C)=C(c2cn(C)c3ccccc23)C1=O.Cl
[1]
  Activity: 98%
[2]
  Activity: 94%
[3]
  Activity: 100%
[4]
  Activity: 74%
[5]
  Activity: 100%
[6]
  Activity: 89%
[7]
  Activity: 88%
[8]
  Activity: 97%
[9]
  inhibition: Active
